Laboratory results from the NIST ThermoML archive (doi:10.1016/j.jct.2008.04.008).
Where “and” joins values, the source holds several entries; their conditions need not be identical. Identical values can stand only once.

Experiments:
[1] = Liquid
[2] = mn = molality of the nth substance listed, in mol/kg; settings: Liquid; for speed of sound: Pulse-echo method

CO [methanol]
[1]
Settings	mass density
283.15 K	800.575 kg/m3 [middle of 4 runs]
288.15 K	795.888 kg/m3 [middle of 4 runs]
293.15 K	791.194 kg/m3 and 791.243 kg/m3 and 791.184 kg/m3
298.15 K	786.534 kg/m3 and 786.475 kg/m3 and 786.485 kg/m3
303.15 K	781.758 kg/m3 [middle of 4 runs]
308.15 K	777.058 kg/m3 and 776.997 kg/m3 and 777.007 kg/m3
313.15 K	772.28 kg/m3 and 772.219 kg/m3 and 772.229 kg/m3

Settings	speed of sound [m/s]
[1], 298.15 K, 101.33 kPa, Pulse-echo method	1102.4

CO [methanol] + [Br-].[Na+]
[2], m2 = 0
Settings	mass density [kg/m3]
283.15 K	800.625
288.15 K	795.934
293.15 K	791.243
298.15 K	786.534
303.15 K	781.808
308.15 K	777.058
313.15 K	772.28

CO [methanol] + [Br-].c1ccc([P+](c2ccccc2)(c2ccccc2)c2ccccc2)cc1
[2], m2 = 0
Settings	mass density [kg/m3]
283.15 K	800.567
288.15 K	795.88
293.15 K	791.184
298.15 K	786.475
303.15 K	781.748
308.15 K	776.997
313.15 K	772.219

CO [methanol] + [Na+].[O-][Cl+3]([O-])([O-])[O-]
[2], m2 = 0
Settings	mass density [kg/m3]
283.15 K	800.568
288.15 K	795.879
293.15 K	791.184
298.15 K	786.475
303.15 K	781.746
308.15 K	776.997
313.15 K	772.219

CO [methanol] + [Na+].c1ccc([B-](c2ccccc2)(c2ccccc2)c2ccccc2)cc1
[2], m2 = 0
Settings	mass density [kg/m3]
283.15 K	800.575
288.15 K	795.888
293.15 K	791.194
298.15 K	786.485
303.15 K	781.758
308.15 K	777.007
313.15 K	772.229

[Br-].[Na+] [sodium bromide] + CO
[2]
Settings	mass density, 283.15 K [kg/m3]	mass density, 288.15 K [kg/m3]	mass density, 293.15 K [kg/m3]	mass density, 298.15 K [kg/m3]	mass density, 303.15 K [kg/m3]	mass density, 308.15 K [kg/m3]	mass density, 313.15 K [kg/m3]	speed of sound, 298.15 K [m/s]
m1 = 0.06477	805.613	800.933	796.252	791.558	786.848	782.114	777.354	1106.1
m1 = 0.08313	807.039	802.363	797.683	792.99	788.28	783.548	778.794	1107.1
m1 = 0.1039	808.613	803.939	799.259	794.566	789.865	785.138	780.385	1107.7
m1 = 0.1241	810.154	805.482	800.807	796.119	791.41	–	–	1108.7
m1 = 0.1439	811.667	806.995	802.323	797.64	792.938	788.218	783.471	1109.1
m1 = 0.1639	813.155	808.489	803.818	799.135	794.436	789.716	784.971	–
m1 = 0.2071	816.441	811.772	807.109	802.43	797.736	793.019	788.281	1111.8
m1 = 0.2491	819.583	814.916	810.253	805.577	800.887	796.174	791.44	1113.2
m1 = 0.2915	822.759	818.104	813.441	808.767	804.078	799.369	794.64	1114.9
m1 = 0.3318	825.782	821.118	816.459	811.79	807.103	802.396	797.671	1116.1
m1 = 0.3735	828.905	824.245	819.585	814.919	810.236	805.533	800.808	1117.6
m1 = 0.4167	832.098	827.443	822.783	818.116	813.434	808.735	804.019	1119.2

[Na+].c1ccc([B-](c2ccccc2)(c2ccccc2)c2ccccc2)cc1 [sodium tetraphenylboron] + CO
[2]
Settings	mass density, 283.15 K [kg/m3]	mass density, 288.15 K [kg/m3]	mass density, 293.15 K [kg/m3]	mass density, 298.15 K [kg/m3]	mass density, 303.15 K [kg/m3]	mass density, 308.15 K [kg/m3]	mass density, 313.15 K [kg/m3]	speed of sound, 298.15 K [m/s]
m1 = 0.02864	803.855	799.183	794.505	789.813	785.107	780.377	775.618	–
m1 = 0.03742	804.851	800.185	795.511	790.825	786.118	781.392	776.646	–
m1 = 0.04715	805.936	801.274	796.607	791.928	787.23	782.507	–	–
m1 = 0.05653	806.979	802.323	797.659	792.985	788.298	783.585	778.847	–
m1 = 0.06567	807.991	803.338	798.679	794.015	789.33	784.622	779.888	1114.1
m1 = 0.07566	809.099	804.455	799.8	795.14	790.46	785.759	781.031	1115.7
m1 = 0.09526	811.246	806.611	801.967	797.318	792.652	787.962	783.246	1119
m1 = 0.1146	813.35	808.726	804.095	799.453	794.791	790.107	785.409	1122.4
m1 = 0.1339	815.434	810.82	806.2	801.569	796.921	792.253	787.56	1125.7
m1 = 0.1529	817.425	812.819	808.212	803.59	798.952	794.294	789.61	1128.3
m1 = 0.173	819.579	814.984	810.383	805.772	801.145	796.5	791.829	1131.7
m1 = 0.1931	821.677	817.092	812.503	807.899	803.28	798.648	793.987	1135.5

[Br-].c1ccc([P+](c2ccccc2)(c2ccccc2)c2ccccc2)cc1 [tetraphenylphosphorane bromide] + CO
[2]
Settings	mass density, 283.15 K [kg/m3]	mass density, 288.15 K [kg/m3]	mass density, 293.15 K [kg/m3]	mass density, 298.15 K [kg/m3]	mass density, 303.15 K [kg/m3]	mass density, 308.15 K [kg/m3]	mass density, 313.15 K [kg/m3]	speed of sound, 298.15 K [m/s]
m1 = 0.0261	804.518	799.837	795.15	790.45	785.734	780.996	776.229	1106.5
m1 = 0.03452	805.776	801.095	796.408	791.716	787.003	782.267	777.504	1107.7
m1 = 0.04277	807.01	802.333	797.652	792.957	788.242	783.515	778.757	1109.1
m1 = 0.05089	808.208	803.532	798.856	794.167	789.459	784.728	779.972	1110.1
m1 = 0.05974	–	–	–	–	–	–	–	1111.4
m1 = 0.06826	810.754	806.084	801.412	796.727	792.025	787.301	782.553	1112.8
m1 = 0.08592	813.321	808.661	803.994	799.314	794.618	789.901	785.158	1115.3
m1 = 0.1039	815.894	811.236	806.575	801.901	797.21	792.499	787.763	1117.8
m1 = 0.1212	818.357	813.704	809.048	804.378	799.693	794.987	790.256	1119.9
m1 = 0.1384	820.799	816.147	811.492	806.831	802.152	797.452	792.728	1122.4
m1 = 0.1565	823.304	818.656	814.011	809.353	804.679	799.985	795.267	1124.7
m1 = 0.1747	825.843	821.2	816.556	811.905	807.237	802.548	797.837	1127
